One block for each molecule: values may come before it.
What was measured:
mice = experiment: In vivo delivery of FLuc-mRNA lipid nanoparticles in mice, in vivo imaging (IVIS)
Method in brief: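 Mice (n=3) received about 75 μL FLuc-mRNA LNP per mouse intramuscularly (rectus femoris), intravenously (tail vein), intraperitoneally or subcutaneously (back). After injection, D-luciferin (200 μL, 15 mg/mL) was given i.p. 10-15 min before IVIS imaging.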

[1] = Particle size and PDI of nucleic acid lipid nanoparticle preparations by dynamic light scattering; type: physicochemical
Method: The 7.5 μL nucleic acid lipid nanoparticle solution (containing approximately 0.04 mg/mL mRNA) was taken and added with 200 μL ultrapure water, mixed by gentle blowing using a pipette tip, and the particle size of the nanopreparation was detected by dynamic lightscattering (DLS) using a Malvern Dynamic Light Scattering Instrument (Malvern Instruments Ltd., ZEN3700, UK).
27.5 μL nucleic acid lipid nanoparticle solution (containing about 0.04 mg/mL mRNA) was taken and added with 200 μL ultrapure water. A pipette tip was used to gently blow the sample and mix well. The particle size of the nanopreparation was detected by Malvern Dynamic Light Scattering Instrument (Malvern Instruments Ltd., ZEN3700, UK). After the detection, the sample was recovered to an EP tube, and 600 μL of ultrapure water was added, gently blown with a pipette tip, and the potential of the nanopreparation was measured by a Malvern particle size meter.

[2] = DMG-PEG2000:DSPC:Chol:Lipid 1.40:11.15:38.95:48.50, N/P 30, IM, whole body scan
[3] = DMG-PEG2000:DSPC:Chol:Lipid 1.40:11.15:38.95:48.50, N/P 30, IV, body (whole body scan)
[4] = DMG-PEG2000:DSPC:Chol:Lipid 1.40:11.15:38.95:48.50, N/P 30, mRNA LNP
[5] = DMG-PEG2000:DSPC:Chol:Lipid 1.40:11.15:38.95:48.50, N/P 18, IM, whole body scan
[6] = DMG-PEG2000:DSPC:Chol:Lipid 1.40:11.15:38.95:48.50, N/P 18, IV, whole body scan
[7] = DMG-PEG2000:DSPC:Chol:Lipid 1.40:11.15:38.95:48.50, N/P 18, mRNA LNP
[8] = DMG-PEG2000:DSPC:Chol:Lipid 1.40:11.15:38.95:48.50, N/P 30, IV, liver
[9] = DMG-PEG2000:DSPC:Chol:Lipid 1.40:11.15:38.95:48.50, N/P 30, IV, lung
[10] = DMG-PEG2000:DSPC:Chol:Lipid 1.40:11.15:38.95:48.50, N/P 30, IV, spleen
[11] = DMG-PEG2000:DSPC:Chol:Lipid 1.50:11.50:52.00:35.00, N/P 18, IV, liver
[12] = DMG-PEG2000:DSPC:Chol:Lipid 1.50:11.50:52.00:35.00, N/P 18, IV, lung
[13] = DMG-PEG2000:DSPC:Chol:Lipid 1.50:11.50:52.00:35.00, N/P 18, IV, spleen
[14] = DMG-PEG2000:DSPC:Chol:Lipid 1.50:11.50:52.00:35.00, N/P 18, mRNA LNP
[15] = DMG-PEG2000:DSPC:Chol:Lipid 2.63:12.10:53.68:31.59, N/P 30, IV, liver
[16] = DMG-PEG2000:DSPC:Chol:Lipid 2.63:12.10:53.68:31.59, N/P 30, IV, lung
[17] = DMG-PEG2000:DSPC:Chol:Lipid 2.63:12.10:53.68:31.59, N/P 30, IV, spleen
[18] = DMG-PEG2000:DSPC:Chol:Lipid 2.63:12.10:53.68:31.59, N/P 30, mRNA LNP
[19] = DMG-PEG2000:DSPC:Chol:compound 1.40:11.15:38.95:48.50, N/P 20
[20] = IM, DMG-PEG2000:DSPC:Chol:compound 1.40:11.15:38.95:48.50, N/P 30, Fluc-mRNA
[21] = IV, body, DMG-PEG2000:DSPC:Chol:compound 1.40:11.15:38.95:48.50, N/P 30, Fluc-mRNA
[22] = IV, liver, DMG-PEG2000:DSPC:Chol:compound 1.40:11.15:38.95:48.50, N/P 30
[23] = IV, liver, DMG-PEG2000:DSPC:Chol:compound 1.40:11.15:38.95:48.50, N/P 30, Fluc-mRNA
[24] = IV, lung, DMG-PEG2000:DSPC:Chol:compound 1.40:11.15:38.95:48.50, N/P 30
[25] = IV, lung, DMG-PEG2000:DSPC:Chol:compound 1.40:11.15:38.95:48.50, N/P 30, Fluc-mRNA
[26] = IV, spleen, DMG-PEG2000:DSPC:Chol:compound 1.40:11.15:38.95:48.50, N/P 30
[27] = IV, spleen, DMG-PEG2000:DSPC:Chol:compound 1.40:11.15:38.95:48.50, N/P 30, Fluc-mRNA
[28] = DMG-PEG2000:DSPC:Chol:compound 1.40:11.15:38.95:48.50, N/P 30

SMILES: CCCCCCCCCCCCOC(=O)C(O)CN(C)CCN(C)CCN(C)CC(O)C(=O)OCCCCCCCCCCCC (stereo not drawn) [Compound L0276]
IVIS (mice; [2]): 1.81 × 10^6 | IVIS (mice; [3]): 1.60 × 10^5 | PDI [1, 4]: 0.23 ± 0.02 | Particle size [1, 4]: 98.58 ± 2.89 nm

SMILES: CCCCCCCCCCCCNC(=O)C(O)CN(C)CCN(C)CCN(C)CC(O)C(=O)NCCCCCCCCCCCC (stereo not drawn) [Compound L0278]
IVIS (mice; [5]): 3.77 × 10^5 | IVIS (mice; [6]): 2.49 × 10^5 | PDI [1, 7]: 0.23 ± 0.01 | Particle size [1, 7]: 91.75 ± 0.80 nm

SMILES: CCCCCCCCCCCCNC(=O)C(O)CN(CCCN(CCCCO)CCCN(CC(O)C(=O)NCCCCCCCCCCCC)CC(O)C(=O)NCCCCCCCCCCCC)CC(O)C(=O)NCCCCCCCCCCCC (stereo not drawn) [Compound L0282]
IVIS (mice; [2]): 5.98 × 10^6 | IVIS (mice; [3]): 1.50 × 10^7 | % of organ targeting (mice; [8]): 2.75% | IVIS (mice; [8]): 6.77 × 10^5 | % of organ targeting (mice; [9]): 60.96% | IVIS (mice; [9]): 1.50 × 10^7 | % of organ targeting (mice; [10]): 36.29% | IVIS (mice; [10]): 8.93 × 10^6 | IVIS (mice; DMG-PEG2000:DSPC:Chol:Lipid 1.50:11.50:52.00:35.00, N/P 18, IV, body): 3.77 × 10^6 | % of organ targeting (mice; [11]): 7.18% | IVIS (mice; [11]): 6.44 × 10^5 | % of organ targeting (mice; [12]): 8.27% | IVIS (mice; [12]): 7.41 × 10^5 | % of organ targeting (mice; [13]): 84.55% | IVIS (mice; [13]): 7.58 × 10^6 | tissue-targeting specificity (lung vs spleen depending on molar percentage of compound) (mice; certain formulations, Table 2): strong tissue-targeting specificity | PDI [1, 4]: 0.15 ± 0.02 | Particle size [1, 4]: 85.38 ± 0.31 nm | PDI [1, 14]: 0.18 ± 0.00 | Particle size [1, 14]: 100.32 ± 0.97 nm

SMILES: CCCCCCC(CCCCCC)C(=O)OCCCCCCOC(=O)C(O)CN(C)CCN(C)CCN(C)CC(O)C(=O)OCCCCCCOC(=O)C(CCCCCC)CCCCCC (stereo not drawn) [Compound L0286]
IVIS (mice; [2]): 3.05 × 10^3 | IVIS (mice; [3]): 4.41 × 10^6 | PDI [1, 4]: 0.16 ± 0.04 | Particle size [1, 4]: 136.97 ± 0.92 nm

SMILES: CCCCCCCCC(CCCCCC)C(=O)OCCCCOC(=O)C(O)CN(CCN(C)CCN(CC(O)C(=O)OCCCCOC(=O)C(CCCCCC)CCCCCCCC)CC(O)C(=O)OCCCCOC(=O)C(CCCCCC)CCCCCCCC)CC(O)C(=O)OCCCCOC(=O)C(CCCCCC)CCCCCCCC (stereo not drawn) [Compound L0298]
IVIS (mice; [20]): 5.25E+07 | IVIS (mice; [21]): 1.30E+08 | % of organ targeting (mice; [22]): 39.52% | IVIS (mice; [23]): 3.03E+07 | % of organ targeting (mice; [24]): 5.53% | IVIS (mice; [25]): 4.23E+06 | % of organ targeting (mice; [26]): 54.95% | IVIS (mice; [27]): 4.21E+07 | PDI [1, 28]: 0.11 | Particle size (nm) [1, 28]: 91.43 nm

Now from value to molecule, other results behind:

PDI [1, 7]: 0.21 ± 0.00 | Particle size [1, 7]: 99.36 ± 2.16 nm
SMILES: CCCCCCCCCCNC(=O)C(O)CN(C)CCN(C)CCN(C)CC(O)C(=O)NCCCCCCCCCC (stereo not drawn) [Compound L0277]
IVIS (mice; [5]): 2.60 × 10^5 | IVIS (mice; [6]): 4.28 × 10^5

PDI [1, 4]: 0.23 ± 0.02 | Particle size [1, 4]: 150.80 ± 1.97 nm
SMILES: CCCCCCOCOCCCCCCOC(=O)C(O)CN(C)CCN(C)CCN(C)CC(O)C(=O)OCCCCCCOCOCCCCCC (stereo not drawn) [Compound L0279]
IVIS (mice; [2]): 2.87 × 10^5 | IVIS (mice; [3]): 5.19 × 10^5

PDI [1, 4]: 0.12 ± 0.01 | Particle size [1, 4]: 99.68 ± 0.45 nm | PDI [1, 18]: 0.12 ± 0.01 | Particle size [1, 18]: 95.92 ± 0.22 nm
SMILES: CCCCCCCCCCCCNC(=O)C(O)CN(CCCCN(C)CCCCN(CC(O)C(=O)NCCCCCCCCCCCC)CC(O)C(=O)NCCCCCCCCCCCC)CC(O)C(=O)NCCCCCCCCCCCC (stereo not drawn) [Compound L0283]
IVIS (mice; [2]): 2.02 × 10^6 | IVIS (mice; [3]): 1.94 × 10^8 | % of organ targeting (mice; [8]): 0.75% | IVIS (mice; [8]): 9.53 × 10^6 | % of organ targeting (mice; [9]): 98.03% | IVIS (mice; [9]): 1.24 × 10^9 | % of organ targeting (mice; [10]): 1.22% | IVIS (mice; [10]): 1.54 × 10^7 | IVIS (mice; DMG-PEG2000:DSPC:Chol:Lipid 2.63:12.10:53.68:31.59, N/P 30, IV, body): 4.87 × 10^7 | % of organ targeting (mice; [15]): 5.72% | IVIS (mice; [15]): 3.31 × 10^6 | % of organ targeting (mice; [16]): 25.56% | IVIS (mice; [16]): 1.48 × 10^7 | % of organ targeting (mice; [17]): 68.73% | IVIS (mice; [17]): 3.98 × 10^7 | in vivo delivery efficiency as compared to the benchmark compound SM102 (mice; certain formulations, Table 2): superior in vivo delivery efficiency | tissue-targeting specificity (lung vs spleen depending on molar percentage of compound) (mice; certain formulations, Table 2): strong tissue-targeting specificity

PDI [1, 7]: 0.12 ± 0.02 | Particle size [1, 7]: 150.97 ± 2.57 nm
SMILES: CC/C=C\CCOCOCCCCCCOC(=O)C(O)CN(C)CCN(C)CCN(C)CC(O)C(=O)OCCCCCCOCOCC/C=C\CC (stereo not drawn) [Compound L0284]
IVIS (mice; [5]): 5.87 × 10^4 | IVIS (mice; [6]): 2.03 × 10^5

PDI [1, 19]: 0.16 | Particle size (nm) [1, 19]: 81.09 nm
SMILES: CCCCCCCC/C=C\CCCCCCCCNC(=O)C(O)CN(C)CCN(C)CCN(C)CC(O)C(=O)NCCCCCCCC/C=C\CCCCCCCC (stereo not drawn) [Compound L0296]
IVIS (mice; IM, DMG-PEG2000:DSPC:Chol:compound 1.40:11.15:38.95:48.50, N/P 20, Fluc-mRNA): 2.80E+05 | IVIS (mice; IV, organ not given, DMG-PEG2000:DSPC:Chol:compound 1.40:11.15:38.95:48.50, N/P 20, Fluc-mRNA): 2.97E+05

PDI [1, 28]: 0.13 | Particle size (nm) [1, 28]: 119.00 nm
SMILES: CCCCCCC(CCCCCC)C(=O)OCCCCOC(=O)C(O)CN(CCN(C)CCN(CC(O)C(=O)OCCCCOC(=O)C(CCCCCC)CCCCCC)CC(O)C(=O)OCCCCOC(=O)C(CCCCCC)CCCCCC)CC(O)C(=O)OCCCCOC(=O)C(CCCCCC)CCCCCC (stereo not drawn) [Compound L0297]
IVIS (mice; [20]): 8.34E+07 | IVIS (mice; [21]): 1.64E+08 | % of organ targeting (mice; [22]): 35.19% | IVIS (mice; [23]): 3.82E+07 | % of organ targeting (mice; [24]): 13.24% | IVIS (mice; [25]): 1.44E+07 | % of organ targeting (mice; [26]): 51.57% | IVIS (mice; [27]): 5.59E+07

PDI [1, 28]: 0.16 | Particle size (nm) [1, 28]: 91.76 nm
SMILES: CCCCCCCC/C=C\CCCCCCCCNC(=O)C(O)CN(CCN(C)CCN(CC(O)C(=O)NCCCCCCCC/C=C\CCCCCCCC)CC(O)C(=O)NCCCCCCCC/C=C\CCCCCCCC)CC(O)C(=O)NCCCCCCCC/C=C\CCCCCCCC (stereo not drawn) [Compound L0299]
IVIS (mice; [20]): 1.92E+06 | IVIS (mice; [21]): 1.55E+07 | % of organ targeting (mice; [22]): 7.28% | IVIS (mice; [23]): 7.84E+05 | % of organ targeting (mice; [24]): 41.60% | IVIS (mice; [25]): 4.48E+06 | % of organ targeting (mice; [26]): 51.12% | IVIS (mice; [27]): 5.50E+06

— patent publication US12233161B1, “Lipids and lipid nanoparticle formulations” (LONGUIDE BIOPHARMA CORPORATION, priority 2024, dated 2025)
